From patent US20110124740A1, “NOVEL DIARYL HEPATONOID-BASED COMPOUNDS AND USE THEREOF” (priority 2008, published 2011)
Read-outs that look alike come from different tables or passages of the source.

Key:
[1] = test system: CEF (chicken embryo fibroblasts)
[2] = test system: avian influenza virus KBNP-0028 (KCTC 10866BP); type: cell-based, A/chicken/Korea/SNU0028/2000(H9N2)

O=C(CCc1ccc(O)c(O)c1)C[C@H](O)CCc1ccc(O)c(O)c1 [12B-AJ-15A, (5R)-1,7-bis(3,4-dihydroxyphenyl)-5-hydroxyheptane-3-one]
Cytotoxicity (in words) [1]: no cytotoxicity
Cytotoxicity (MTT assay value) ([1]; 6.25 μg/mL): 0.457
Cytotoxicity (MTT assay value) ([1]; 12.5 μg/mL): 0.369
Cytotoxicity (MTT assay value) ([1]; 25 μg/mL): 0.320
Cytotoxicity (MTT assay value) ([1]; 50 μg/mL): 0.369
Cytotoxicity (MTT assay value) ([1]; 100 μg/mL): 0.423
Cytotoxicity (MTT assay value) ([1]; 200 μg/mL): 0.538
Antiviral activity (in words) [2]: had antiviral activity
Number of wells wherein hemagglutination occurs (among 6 wells) ([2]; 12.5 μg/mL): 3
Number of wells wherein hemagglutination occurs (among 6 wells) ([2]; 25 μg/mL): 3
Number of wells wherein hemagglutination occurs (among 6 wells) ([2]; 50 μg/mL): 3
Number of wells wherein hemagglutination occurs (among 6 wells) ([2]; 100 μg/mL): 3
